We go through 23 compounds from patent US12528796B2, “Modulators of RAS GTPase” (Tosk, Inc., priority 2019, dated 2026).

In the assay the test system is SW620 cells (KRAS-G12V). Description: Cell proliferation / cytotoxicity assay (CellTiter-Glo 2.0). The format is cell-based. The following applies: Homo sapiens, SW-620, 72 h, SW620 cell line (KRAS-G12V), 72 hours incubation, luminescence (CellTiter-Glo 2.0); read-out: 5W620 IC50. On the procedure: Compounds are assayed for inhibition of cell proliferation and killing cancer cells. Cytotoxicity assays are conducted according to the following general procedure. SW620 cells (ATCC CCL-227) are maintained in DMEM Low Glucose (Corning 10-014-CV) media supplemented with 10% fetal bovine serum and 1% PenStrep and grown at 37° C. in 5% CO2. Cells are plated into 96 well flat bottom plates (2 million/plate, ˜20,000/well, 200 μL media/well). The cells are allowed to settle and adhere to the plate bottom overnight. Compounds are diluted in media from a 10 mM stock solution starting at 50 μM, using 2-fold dilutions, in a column in a 96-well plate. Media is removed from the plate containing cells and replaced with media containing diluted compounds. Plates are incubated 72 hours at 37° C. in 5% CO2. Plates were allowed to come to room temperature and 100 μL CellTiter-Glo 2.0 reagent (Promega, G924C) is added at room temperature. Plates are shaken for 2 minutes, then allowed to stand for 15 minutes. Luminescence is read with FLx800 (BioTek Instruments). Data is plotted with GraphPad Prizm 8.0.
Dose response curves for the cytotoxicity of exemplary compounds against SW620 (KRAS-G12V) and MIA PaCa-2 (KRAS-G12C) cell lines are shown in FIG. 1A-1J.
In general terms: ATP-based viability assays read luminescence as a measure of living cells.
For orientation: IC50 means the concentration that inhibits the measured activity by half. On to `Cc1nc(NC2CCN(C(=O)c3cccc(Cl)c3)[C@H](C)C2)nc2ccc(-c3cccc4c3OCCO4)cc12` (some centres unmarked) [Compound 25], for which the IC50 lay within 5 to 10 µM.

For `Cc1nc(NC2CCN(Cc3ccc(Cl)cc3)CC2)nc2ccc(-c3cccc4c3C(=O)CCC4)cc12` [Compound 32], the IC50 was under 5 µM.

For the compound `Cc1nc(N2CCC(N3Cc4ccccc4CC3=O)C2)nc2ccc(-c3cccc4c3OCCO4)cc12` (centres unmarked) [Compound 9], the IC50 was in the range of 5 to 10 µM.

Regarding `COc1cnccc1-c1ccc2nc(NC3CCN(Cc4ccc(Cl)cc4)CC3)nc(C)c2c1` [Compound 49], the IC50 was under 5 µM.

In the case of `Cc1nc(NC2CCN(Cc3ccc(Cl)cc3)CC2)nc2ccc(-c3cccc4c3OCCO4)cc12` [Compound 3, N-(1-(4-chlorobenzyl)piperidin-4-yl)-6-(2,3-dihydrobenzo[b][1,4]dioxin-5-yl)-4-methylquinazolin-2-amine], the IC50 was under 5 µM.

Turning to `Cc1nc(NC2CCN(Cc3ccc(Cl)cc3)CC2)nc2ccc(-c3cccc4c3CCCC4)cc12` [Compound 21], the IC50 is under 5 µM.

In the case of `Cc1nc(NC2CCN(C(=O)c3ccc(Cl)cc3)CC2)nc2ccc(-c3cccc4[nH]nc(C)c34)cc12` [Compound 18], the IC50 was under 5 µM.

For the compound `Cc1nc(NC2CCN(C(=O)c3ccc(Cl)cc3)CC2)ncc1-c1ccccc1C(C)(O)c1ccccc1` (centres unmarked) [Compound 38], the IC50 fell in the range of 5 to 10 µM.

In the case of `Cc1nc(NC2CCN(Cc3ccc(Cl)cc3)CC2)nc2ccc(-c3cccc4c3CC(=O)CO4)cc12` [Compound 64], the IC50 is under 5 µM.

`Cc1nc(N[C@@H]2CC[C@@H](Cc3ccc(Cl)cc3)NC2)nc2ccc(-c3cccc4c3CCCC4)cc12` [Compound 37]: the IC50 lay within 5 to 10 µM.

In the case of `Cc1nc(NC2CCN(Cc3ccc(Cl)cc3)CC2)nc2ccc(-c3ccnc4ccc(Cl)cc34)cc12` [Compound 22], the IC50 fell in the range of 5 to 10 µM.

Take `Cc1nc(NC2CCN(C(=O)c3ccccc3Cl)CC2)nc2ccc(-c3cccc4c3OCCO4)cc12` [Compound 16]: the IC50 was under 5 µM.

`Cc1nc(NC2CCN(C(=O)c3ccccc3Cl)CC2)nc2ccc(-c3cccc4c3CCCC4)cc12` [Compound 36]: the IC50 fell in the range of 5 to 10 µM.

`Cc1nc(NC2CCN(C(=O)c3ccc(Cl)cc3)CC2)nc2ccc(-c3cccc4c3CCCC4)cc12` [Compound 23]: the IC50 is under 5 µM.

As to `Cc1nc(N2CC[C@H](N3Cc4ccccc4CC3=O)C2)nc2ccc(-c3cccc4c3OCCO4)cc12` [Compound 10], the IC50 lay within 5 to 10 µM.

Regarding `Cc1ccc2ccc(F)c(-c3ccc4nc(NC5CCNCC5)nc(C)c4c3)c2n1` [Compound 60], the IC50 was under 5 µM.

Turning to `Cc1ncccc1-c1ccc2nc(N[C@H]3CC[C@@H](NC4Cc5cccc(Cl)c5C4)CC3)nc(C)c2c1` (some centres unmarked) [Compound 69], the IC50 was 5 to 10 µM.

For `Cc1nc(NC2CCN(Cc3ccc(Cl)cc3)CC2)nc2ccc(-c3cccc4c3CCNC4)cc12` [Compound 4, N-(1-(4-chlorobenzyl)piperidin-4-yl)-4-methyl-6-(1,2,3,4-tetrahydroisoquinolin-5-yl)quinazolin-2-amine], the IC50 lay within 5 to 10 µM.

For the compound `Cc1nc(NC2CCN(Cc3ccc(Cl)cc3)CC2)nc2ccc(-c3cncc4ccccc34)cc12` [Compound 59], the concentration for half-maximal inhibition (IC50) is 5 to 10 µM.

Turning to `Cc1nc(NC2CCN(Cc3ccc(Cl)cc3)CC2)nc2ccc(-c3cccc4c3NC(=O)CO4)cc12` [Compound 62], the IC50 was under 5 µM.

As to `Cc1nc(N[C@H]2CC[C@@H](NC3Cc4cccc(Cl)c4C3)CC2)nc2ccc(Br)cc12` (some centres unmarked) [Compound 67], the IC50 lay within 5 to 10 µM.

Regarding `Cc1ncccc1-c1ccc2nc(NC3CCN(C(=O)c4ccc(Cl)cc4)CC3)nc(C)c2c1` [Compound 66], the IC50 is 5 to 10 µM.

As to `Cc1nc(NC2CCN(Cc3ccc(Cl)cc3)CC2)nc2ccc(-c3ccnc(N4CCCCC4)c3F)cc12` [Compound 47], the IC50 was under 5 µM.
